From patent US11951109B2, “EZH2 inhibitors for treating lymphoma” (Epizyme, Inc., priority 2015, dated 2024)

Tests used:
Farage = experiment: Combination of EPZ-6438 and other therapeutic agents (4+3 model), Farage; settings: WT EZH2 GCB
SUDHL5 = experiment: Combination of EPZ-6438 and other therapeutic agents (4+3 model), SUDHL5; settings: for combination effect with EPZ-6438, SUDHL5: WT EZH2 GCB
OCI-LY7 = experiment: Combination of EPZ-6438 and other therapeutic agents (4+3 model), OCI-LY7; settings: WT EZH2 GCB
SU-DHL-10 = experiment: Combination of EPZ-6438 and other therapeutic agents (4+3 model), SU-DHL-10; settings: for combination effect with EPZ-6438, SU-DHL-10: Mutant EZH2 GCB; for combination effect with EPZ-6438, SU-DHL-10 (mutant EZH2 GC): Table 3
TMD8 = experiment: Combination of EPZ-6438 and other therapeutic agents (4+3 model), TMD8; settings: WT EXH2 ABC
OCI-LY19 = experiment: Combination of EPZ-6438 and other therapeutic agents (4+3 model), OCI-LY19; settings: 4+3 model; for combination effect with EPZ-6438, OCI-LY19: WT EZH2 GCB
OCI-LY3 = experiment: Combination of EPZ-6438 and other therapeutic agents (4+3 model), OCI-LY3; settings: WT EXH2 ABC
KARPAS-422 = experiment: Combination of EPZ-6438 and other therapeutic agents (4+3 model), KARPAS-422; settings: Mutant EZH2 GCB
RC-K8 = experiment: Combination of EPZ-6438 and other therapeutic agents (4+3 model), RC-K8; settings: WT EXH2 ABC
WSU-DLCL2 = experiment: Combination of EPZ-6438 and other therapeutic agents (4+3 model), WSU-DLCL2; settings: for combination effect with EPZ-6438, WSU-DLCL2: Mutant EZH2 GCB, EPZ-6438 4 days then co-treatment 3 days (4+3 model); for combination effect with EPZ-6438, WSU-DLCL2 (mutant EZH2 GC): Table 3, 4+3 model
SU-DHL-6 = experiment: Combination of EPZ-6438 and other therapeutic agents (4+3 model), SU-DHL-6; settings: for combination effect with EPZ-6438, SU-DHL-6: Mutant EZH2 GCB; for combination effect with EPZ-6438, SU-DHL-6 (mutant EZH2 GC): Table 3
HT = experiment: Combination of EPZ-6438 and other therapeutic agents (4+3 model), HT; settings: WT EZH2 GCB
SUDHL2 = experiment: Combination of EPZ-6438 and other therapeutic agents (4+3 model), SUDHL2; settings: WT EXH2 ABC
Toledo = settings: Table 3; 4+3 model
DOHH2 = experiment: Combination of EPZ-6438 and other therapeutic agents (4+3 model), DOHH2; type: cell-based; settings: for combination effect with EPZ-6438, DOHH2 (WT EZH2 GC): Table 3; for combination effect with EPZ-6438, DOHH2: WT EZH2 GCB

SMILES	combination effect with EPZ-6438, Farage (Farage)	combination effect with EPZ-6438, SUDHL5 (SUDHL5)	combination effect with EPZ-6438, OCI-LY7 (OCI-LY7)	combination effect with EPZ-6438, SU-DHL-10 (SU-DHL-10)	combination effect with EPZ-6438, TMD8 (TMD8)	combination effect with EPZ-6438, OCI-LY19 (OCI-LY19)	combination effect with EPZ-6438, OCI-LY3 (OCI-LY3)	combination effect with EPZ-6438, KARPAS-422 (KARPAS-422)	combination effect with EPZ-6438, RC-K8 (RC-K8)	combination effect with EPZ-6438, WSU-DLCL2 (WSU-DLCL2)	combination effect with EPZ-6438, SU-DHL-6 (SU-DHL-6)	combination effect with EPZ-6438, HT (HT)	combination effect with EPZ-6438, SUDHL2 (SUDHL2)	combination effect with EPZ-6438, Toledo (WT EZH2 ABC) (Toledo)	combination effect with EPZ-6438, SU-DHL-10 (mutant EZH2 GC) (SU-DHL-10)	combination effect with EPZ-6438, DOHH2 (WT EZH2 GC) (DOHH2)	combination effect with EPZ-6438, WSU-DLCL2 (mutant EZH2 GC) (WSU-DLCL2)	combination effect with EPZ-6438, SU-DHL-6 (mutant EZH2 GC) (SU-DHL-6)	further results
NC1(c2ccc(-c3nc4ccn5c(=O)[nH]nc5c4cc3-c3ccccc3)cc2)CCC1 [MK-2206]	S	S	S	S	S	S	S	S	S	S	S	S	–	–	–	–	–	–	–
C=CC(=O)N1CCC[C@@H](n2nc(-c3ccc(Oc4ccccc4)cc3)c3c(N)ncnc32)C1 [Ibrutinib]	S	S	S	S	S	–	ADD.	S	ADD.	S	S	S	ADD.	–	–	–	–	–	–
C[C@]12C=CC(=O)C=C1CC[C@@H]1[C@@H]2[C@@H](O)C[C@@]2(C)[C@H]1CC[C@]2(O)C(=O)CO [Prednisolone]	S	S	S	S	S	S	S	S	S	S	S	–	S	No effect	Synergy	Synergy	Synergy	Synergy	combination effect with EPZ-6438, SU-DHL-5 (WT EZH2 GC) (SUDHL5; Table 3): Synergy; combination effect with EPZ-6438, OCI-LY-19 (WT EZH2 GC) (OCI-LY19; Table 3): Synergy; combination effect with EPZ-6438, DOHH2 (DOHH2): S
COc1cc(Nc2ncc(F)c(Nc3ccc4c(n3)NC(=O)C(C)(C)O4)n2)cc(OC)c1OC [Tamatinib]	S	S	S	S	S	–	S	S	–	S	S	S	S	–	–	–	–	–	–
CO[C@H]1C[C@@H]2CC[C@@H](C)[C@@](O)(O2)C(=O)C(=O)N2CCCC[C@H]2C(=O)O[C@H]([C@H](C)C[C@@H]2CC[C@@H](OCCO)[C@H](OC)C2)CC(=O)[C@H](C)/C=C(\C)[C@@H](O)[C@@H](OC)C(=O)[C@H](C)C[C@H](C)/C=C/C=C/C=C/1C [Everolimus]	S	S	S	S	S	–	S	ADD.	S	S	S	S	S	–	–	–	–	–	–
COc1cccc2c1C(=O)c1c(O)c3c(c(O)c1C2=O)C[C@@](O)(C(=O)CO)C[C@@H]3O[C@H]1C[C@H](N)[C@H](O)[C@H](C)O1 [Doxorubicin]	–	–	–	–	–	–	–	–	–	–	–	–	–	No effect	Additive	No effect	Synergy	Additive	–
CC[C@]1(O)C[C@H]2CN(CCc3c([nH]c4ccccc34)[C@@](C(=O)OC)(c3cc4c(cc3OC)N(C=O)[C@H]3[C@@](O)(C(=O)OC)[C@H](OC(C)=O)[C@]5(CC)C=CCN6CC[C@]43[C@@H]65)C2)C1 [Vincristine]	–	–	–	–	–	–	–	–	–	–	–	–	–	No effect	Additive	No effect	Additive	Additive	–
C[C@@H]1C[C@H]2[C@@H]3CCC4=CC(=O)C=C[C@]4(C)[C@@]3(F)[C@@H](O)C[C@]2(C)[C@@]1(O)C(=O)CO [Dexamethasone]	S	S	S	S	S	S	S	S	S	S	S	–	S	No effect	–	–	–	–	combination effect with EPZ-6438, DOHH2 (DOHH2): S
